From patent US11325913B2, “Compounds and methods for the treatment of malaria” (THE BROAD INSTITUTE, INC., priority 2013, dated 2022)

System: P. falciparum Dd2
Assay: Activity against the Dd2 strain of P. falciparum (SYBR Green I, 72 h)
Type: cell-based
Conditions: P. falciparum Dd2, 72 h incubation
Procedure: The Dd2 strain of P. falciparum was cultured in complete medium (RPMI with L-glutamine, 4.3% heat-inactivated O-positive human serum, 2.08 mg/ml albumax, 0.013 mg/ml hypoxanthine, 1.17 mg/ml glucose, 0.18% NaHCO3, 0.031 M Hepes, 2.60 mM NaOH, and 0.043 mg/ml gentamicin) until the parasitemia reached 3-8%. Parasitemia was determined by checking at least 500 red blood cells from a Giemsa-stained blood smear. The Dd2 cultures along with tested O-positive red blood cells were centrifuged at room temperature at 2,000 rpm for 5 minutes using an Eppendorf centrifuge 5810R with an A-4-81 rotor. The medium was aspirated off. For the compound screening, a parasite dilution at a 1% parasitemia and 1.0% hematocrit was created with screening medium (RPMI with L-glutamine, 4.16 mg/ml albumax II, 0.013 mg/ml hypoxanthine, 1.73 mg/ml glucose, 0.18% NaHCO3, 0.031 M Hepes, 2.60 mM NaOH, and 0.043 mg/ml gentamicin). The suspension was gassed with 93% nitrogen, 4% carbon dioxide, and 3% oxygen and placed at 37° C. until needed. Using a liquid dispenser, 20 μl of screening medium was dispensed into 384-well, black, clear-bottom plates. With a PinTool, 100 nl of compounds dissolved in DMSO was transferred into the assay plates along with control compound (mefloquine). Next, 30 μl of the parasite suspension in screening medium was then dispensed into the assay plates such that the final parasitemia was 1% and the final hematocrit was 1.0%. Final concentration of DMSO was 0.125%. Mefloquine at a final concentration of 20 μM and DMSO at a final concentration of 0.125% were used within the assay plates to serve as background and baseline controls, respectively. The assay plates were transferred to incubators (93% nitrogen, 4% carbon dioxide, and 3% oxygen during the 72 h incubation at 37° C.). Ten microliters of detection reagent consisting of 10×SYBR Green I (Invitrogen; supplied in 10,000× concentration) in lysis buffer (20 mM Tris-HCl, 5 mM EDTA, 0.16% Saponin wt/vol, 1.6% Triton X vol/vol) was dispensed into the assay plates. For optimal staining, the assay plates were left at room temperature for 24 h in the dark. The assay plates were read by using an Envision (PerkinElmer) reader, with 505 dichroic mirrors with 485-nm excitation and 530-nm emission settings, and the plate reads were from the bottom.
By following the above-described protocol, the 50% effective concentration (EC50) for compounds 1-95 was measured against P. falciparum Dd2 and the results are shown in Table 2: […]

[1] = Plasmodium falciparum, DD2, 72 h

| Structure (SMILES) | EC50 [1] | EC50 |
| --- | --- | --- |
| COc1cccc(CN2CCCCN3[C@H](CO)[C@@H](c4ccc(C#Cc5cccnc5)cc4)[C@@H]3C2)c1 [Compound 1, ((8R,9S,10S)-6-(3-methoxybenzyl)-9-(4-(pyridin-3-ylethynyl)phenyl)-1,6-diazabicyclo[6.2.0]decan-10-yl)methanol] | 427 nM |  |
| COc1ccc(NC(=O)N2CCCCN3[C@H](CO)[C@H](c4ccc(C#Cc5ccccn5)cc4)[C@@H]3C2)cc1 [Compound 4, (8R,9R,10S)-10-(hydroxymethyl)-N-(4-methoxyphenyl)-9-(4-(pyridin-2-ylethynyl)phenyl)-1,6-diazabicyclo[6.2.0] decane-6-carboxamide] | 131 nM |  |
| O=S(=O)(c1ccc(F)cc1)N1CCCCN2[C@@H](CO)[C@@H](c3ccc(C4=CCCCC4)cc3)[C@@H]2C1 [Compound 5, ((8R,9S,10R)-6-((4-fluorophenyl)sulfonyl)-9-(2′,3′,4′,5′-tetrahydro-[1,1′-biphenyl]-4-yl)-1,6-diazabicyclo[6.2.0]decan-10-yl)methanol] | 1070 nM |  |
| Cc1cccc(-c2ccc([C@H]3[C@H]4CN(S(=O)(=O)c5cccc(C)c5)CCCCN4[C@H]3CO)cc2)c1 [Compound 7, ((8S,9S,10R)-9-(3′-methyl-[1,1′-biphenyl]-4-yl)-6-(m-tolylsulfonyl)-1,6-diazabicyclo[6.2.0]decan-10-yl)methanol] | 1190 nM |  |
| COc1ccc(C#Cc2ccc([C@@H]3[C@@H](CO)N4CCCCN(C(=O)Nc5cccc(F)c5)C[C@H]34)cc2)cc1 [Compound 8, (8S,9S,10S)-N-(3-fluorophenyl)-10-(hydroxymethyl)-9-(4-((4-methoxyphenyl)ethynyl)phenyl)-1,6-diazabicyclo[6.2.0] decane-6-carboxamide] | 83 nM |  |
| OC[C@H]1[C@@H](c2ccc(-c3ccc(F)cc3)cc2)[C@@H]2CN(CCC(F)(F)F)CCCCN12 [Compound 9, ((8R,9S,10R)-9-(4′-fluoro-[1,1′-biphenyl]-4-yl)-6-(3,3,3-trifluoropropyl)-1,6-diazabicyclo[6.2.0]decan-10-yl)methanol] | 518 nM |  |
| COc1ccccc1NC(=O)N1CCCCN2[C@H](CO)[C@H](c3ccc(C#CC4CC4)cc3)[C@H]2C1 [Compound 14, (8S,9R,10S)-9-(4-(cyclopropylethynyl)phenyl)-10-(hydroxymethyl)-N-(2-methoxyphenyl)-1,6-diazabicyclo[6.2.0] decane-6-carboxamide] | 1200 nM |  |
| COc1ccccc1C#Cc1ccc([C@@H]2[C@@H](CO)N3CCCCN(CCC(F)(F)F)C[C@H]23)cc1 [Compound 15, ((8S,9S,10S)-9-(4-((2-methoxyphenyl)ethynyl)phenyl)-6-(3,3,3-trifluoropropyl)-1,6-diazabicyclo[6.2.0]decan-10-yl)methanol] | 254 nM |  |
| OC[C@H]1[C@@H](c2ccc(-c3cccc(F)c3)cc2)[C@@H]2CN(CCC(F)(F)F)CCCCN12 [Compound 16, ((8R,9S,10R)-9-(3′-fluoro-[1,1′-biphenyl]-4-yl)-6-(3,3,3-trifluoropropyl)-1,6-diazabicyclo[6.2.0]decan-10-yl)methanol] | 618 nM |  |
| COc1cccc(CN2CCCCN3[C@H](CO)[C@@H](c4ccc(C#Cc5cccnc5)cc4)[C@H]3C2)c1 [Compound 17, ((8S,9S,10S)-6-(3-methoxybenzyl)-9-(4-(pyridin-3-ylethynyl)phenyl)-1,6-diazabicyclo[6.2.0]decan-10-yl)methanol] | 560 nM |  |
| CC(C)CC#Cc1ccc([C@@H]2[C@H](CO)N3CCCCN(S(=O)(=O)Cc4ccccc4)C[C@@H]23)cc1 [Compound 19, ((8R,9S,10R)-6-(benzylsulfonyl)-9-(4-(4-methylpent-1-yn-1-yl)phenyl)-1,6-diazabicyclo[6.2.0]decan-10-yl)methanol] | 805 nM |  |
| COCC#Cc1ccc([C@@H]2[C@H](CO)N3CCCCN(S(=O)(=O)c4ccc(OC)cc4)C[C@@H]23)cc1 [Compound 20, ((8R,9S,10R)-6-((4-methoxyphenyl)sulfonyl)-9-(4-(3-methoxyprop-1-yn-1-yl)phenyl)-1,6-diazabicyclo[6.2.0]decan-10-yl)methanol] | 1330 nM |  |
| OC[C@@H]1[C@H](c2ccc(-c3ccccc3)cc2)[C@H]2CN(CCC(F)(F)F)CCCCN12 [Compound 21, ((8S,9R,10S)-9-([1,1′-biphenyl]-4-yl)-6-(3,3,3-trifluoropropyl)-1,6-diazabicyclo[6.2.0]decan-10-yl)methanol] | 623 nM |  |
| COc1ccccc1NC(=O)N1CCCCN2[C@@H](CO)[C@H](c3ccc(C#CC4CCCC4)cc3)[C@@H]2C1 [Compound 23, (8R,9R,10R)-9-(4-(cyclopentylethynyl)phenyl)-10-(hydroxymethyl)-N-(2-methoxyphenyl)-1,6-diazabicyclo[6.2.0] decane-6-carboxamide] | 386 nM |  |
| COc1ccc(NC(=O)N2CCCCN3[C@H](CO)[C@H](c4ccc(C#CCC(C)C)cc4)[C@@H]3C2)cc1 [Compound 24, (8R,9R,10S)-10-(hydroxymethyl)-N-(4-methoxyphenyl)-9-(4-(4-methylpent-1-yn-1-yl)phenyl)-1,6-diazabicyclo[6.2.0] decane-6-carboxamide] | 418 nM |  |
| COc1ccc(NC(=O)N2CCCCN3[C@@H](CO)[C@H](c4ccc(C#Cc5ccccn5)cc4)[C@@H]3C2)cc1 [Compound 25, (8R,9R,10R)-10-(hydroxymethyl)-N-(4-methoxyphenyl)-9-(4-(pyridin-2-ylethynyl)phenyl)-1,6-diazabicyclo[6.2.0] decane-6-carboxamide] | 155 nM |  |

Further lines, results first:

| EC50 [1] | EC50 | Structure (SMILES) |
| --- | --- | --- |
| 165 nM |  | O=C(Nc1ccccc1)N1CCCCN2[C@H](CO)[C@H](c3ccc(C#Cc4cccnc4)cc3)[C@@H]2C1 [Compound 2, (8R,9R,10S)-10-(hydroxymethyl)-N-phenyl-9-(4-(pyridin-3-ylethynyl)phenyl)-1,6-diazabicyclo[6.2.0] decane-6-carboxamide] |
| 118 nM |  | COc1ccccc1NC(=O)N1CCCCN2[C@H](CO)[C@H](c3ccc(C#Cc4ccccc4)cc3)[C@@H]2C1 [Compound 3, (8R,9R,10S)-10-(hydroxymethyl)-N-(2-methoxyphenyl)-9-(4-(phenylethynyl)phenyl)-1,6-diazabicyclo[6.2.0] decane-6-carboxamide] |
| 552 nM |  | O=C(Nc1ccccc1)N1CCCCN2[C@@H](CO)[C@H](c3ccc(C#Cc4cccnc4)cc3)[C@@H]2C1 [Compound 6, (8R,9R,10R)-10-(hydroxymethyl)-N-phenyl-9-(4-(pyridin-3-ylethynyl)phenyl)-1,6-diazabicyclo[6.2.0] decane-6-carboxamide] |
| 949 nM |  | O=C(Nc1ccccc1F)N1CCCCN2[C@@H](CO)[C@H](c3ccc(C#Cc4cccnc4)cc3)[C@@H]2C1 [Compound 10, (8R,9R,10R)-N-(2-fluorophenyl)-10-(hydroxymethyl)-9-(4-(pyridin-3-ylethynyl)phenyl)-1,6-diazabicyclo[6.2.0] decane-6-carboxamide] |
|  | 17 nM | O=C(Nc1ccc(F)cc1)N1CCCCN2[C@H](CO)[C@H](c3ccc(C#Cc4ccccc4)cc3)[C@@H]2C1 [Compound 11, (8R,9R,10S)-N-(4-fluorophenyl)-10-(hydroxymethyl)-9-(4-(phenylethynyl)phenyl)-1,6-diazabicyclo[6.2.0] decane-6-carboxamide] |
| 950 nM |  | O=C(Nc1ccccc1F)N1CCCCN2[C@@H](CO)[C@@H](c3ccc(C#Cc4cccnc4)cc3)[C@@H]2C1 [Compound 12] |
| 44 nM |  | O=C(Nc1cccc(F)c1)N1CCCCN2[C@H](CO)[C@H](c3ccc(C#Cc4ccccc4)cc3)[C@@H]2C1 [Compound 13, (8R,9R,10S)-N-(3-fluorophenyl)-10-(hydroxymethyl)-9-(4-(phenylethynyl)phenyl)-1,6-diazabicyclo[6.2.0] decane-6-carboxamide] |
| 800 nM |  | COc1ccc(C#Cc2ccc([C@@H]3[C@@H](CO)N4CCCCN(C(=O)Nc5ccccc5F)C[C@H]34)cc2)cc1 [Compound 18, (8S,9S,10S)-N-(2-fluorophenyl)-10-(hydroxymethyl)-9-(4-((4-methoxyphenyl)ethynyl)phenyl)-1,6-diazabicyclo[6.2.0] decane-6-carboxamide] |
| 507 nM |  | O=C(Nc1ccccc1F)N1CCCCN2[C@H](CO)[C@H](c3ccc(C#Cc4cccnc4)cc3)[C@@H]2C1 [Compound 22, (8R,9R,10S)-N-(2-fluorophenyl)-10-(hydroxymethyl)-9-(4-(pyridin-3-ylethynyl)phenyl)-1,6-diazabicyclo[6.2.0] decane-6-carboxamide] |
